TGI data for four molecules are collected here from PubChem BioAssay (NCI).

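Where inhibition never reached the appropriate level, the endpoint shown equals the highest concentration tested. Otherwise, values were interpolated linearly from a five-concentration, 48-hour dose response in 96-well plates. Definition used: TGI = concentration required for complete inhibition of growth.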

For one assay, the system named is SK-MEL-2 melanoma. The assay is described as follows: DTP human tumour cell line panel, 48 h.
Consider `CC1=C2C(=O)NN=C2CCN1c1ccc(Br)cc1`, for which the TGI is above 100 µM.

Molecule `O=C(NNC(=S)Nc1ccc(Cl)cc1)c1cc(-c2ccccc2)nc2ccccc12` yielded a TGI of 9.89 µM.

Molecule `COC(=O)C(/C(=N/NC(N)=O)C(=O)Nc1ccc(C)cc1)c1nc2ccc([N+](=O)[O-])cc2[nH]c1=O` (centres undefined) registered a TGI above 100 µM.

For the next assay, the system named is SK-MEL-28 melanoma. The experiment in a line: DTP human tumour cell line panel, 48 h.
`CC1(O)CC(C(F)(F)F)(C(F)(F)F)OC1=O` (centres undefined) gave a TGI above 10 µM.

`CC1=C2C(=O)NN=C2CCN1c1ccc(Br)cc1` showed a TGI above 100 µM.

`O=C(NNC(=S)Nc1ccc(Cl)cc1)c1cc(-c2ccccc2)nc2ccccc12` had a TGI of 14.1 µM.

`COC(=O)C(/C(=N/NC(N)=O)C(=O)Nc1ccc(C)cc1)c1nc2ccc([N+](=O)[O-])cc2[nH]c1=O` (centres undefined) showed a TGI above 100 µM.

The subject of the next assay is SK-MEL-5 melanoma. The experiment in a line: DTP human tumour cell line panel, 48 h.
On to `CC1(O)CC(C(F)(F)F)(C(F)(F)F)OC1=O` (centres undefined), for which the TGI was above 10 µM.

Molecule `CC1=C2C(=O)NN=C2CCN1c1ccc(Br)cc1` displayed a TGI above 100 µM.

Regarding `O=C(NNC(=S)Nc1ccc(Cl)cc1)c1cc(-c2ccccc2)nc2ccccc12`, the TGI came to 16.4 µM.

In turn, `COC(=O)C(/C(=N/NC(N)=O)C(=O)Nc1ccc(C)cc1)c1nc2ccc([N+](=O)[O-])cc2[nH]c1=O` (centres undefined) returned a TGI above 100 µM.

The test system of a further assay is SK-OV-3 ovarian. The assay is described as follows: DTP human tumour cell line panel, 48 h.
The molecule `CC1(O)CC(C(F)(F)F)(C(F)(F)F)OC1=O` (centres undefined) showed a TGI above 10 µM.

Consider `CC1=C2C(=O)NN=C2CCN1c1ccc(Br)cc1`, for which the TGI was above 100 µM.

The molecule `O=C(NNC(=S)Nc1ccc(Cl)cc1)c1cc(-c2ccccc2)nc2ccccc12` showed a TGI of 19.8 µM.

On to `COC(=O)C(/C(=N/NC(N)=O)C(=O)Nc1ccc(C)cc1)c1nc2ccc([N+](=O)[O-])cc2[nH]c1=O` (centres undefined), for which the TGI was above 100 µM.

In the next assay the test system is SN12C renal. The experiment in a line: DTP human tumour cell line panel, 48 h.
`CC1(O)CC(C(F)(F)F)(C(F)(F)F)OC1=O` (centres undefined) displayed a TGI above 10 µM.

In the case of `CC1=C2C(=O)NN=C2CCN1c1ccc(Br)cc1`, the TGI is above 100 µM.

In the case of `O=C(NNC(=S)Nc1ccc(Cl)cc1)c1cc(-c2ccccc2)nc2ccccc12`, the TGI worked out at 21.4 µM. In other words, the double-digit micromolar range.

`COC(=O)C(/C(=N/NC(N)=O)C(=O)Nc1ccc(C)cc1)c1nc2ccc([N+](=O)[O-])cc2[nH]c1=O` (centres undefined): the TGI was above 100 µM.

The next assay relates to SNB-19 CNS. The assay is described as follows: DTP human tumour cell line panel, 48 h.
As to `CC1(O)CC(C(F)(F)F)(C(F)(F)F)OC1=O` (centres undefined), the TGI was above 10 µM.

As for `CC1=C2C(=O)NN=C2CCN1c1ccc(Br)cc1`, the TGI is above 100 µM.

With `O=C(NNC(=S)Nc1ccc(Cl)cc1)c1cc(-c2ccccc2)nc2ccccc12`, the TGI came out at 21.7 µM.

The next assay has as its system SNB-75 CNS. The experiment in a line: DTP human tumour cell line panel, 48 h.
Take `CC1=C2C(=O)NN=C2CCN1c1ccc(Br)cc1`: the TGI is above 100 µM.

The molecule `O=C(NNC(=S)Nc1ccc(Cl)cc1)c1cc(-c2ccccc2)nc2ccccc12` came in with a TGI of 39.8 µM.

For `COC(=O)C(/C(=N/NC(N)=O)C(=O)Nc1ccc(C)cc1)c1nc2ccc([N+](=O)[O-])cc2[nH]c1=O` (centres undefined), the TGI is above 100 µM.

For the next assay, the system named is SR leukemia. The assay is described as follows: DTP human tumour cell line panel, 48 h.
`CC1(O)CC(C(F)(F)F)(C(F)(F)F)OC1=O` (centres undefined) came in with a TGI above 10 µM.

Consider `O=C(NNC(=S)Nc1ccc(Cl)cc1)c1cc(-c2ccccc2)nc2ccccc12`, for which the TGI was 4.72 µM.

Molecule `COC(=O)C(/C(=N/NC(N)=O)C(=O)Nc1ccc(C)cc1)c1nc2ccc([N+](=O)[O-])cc2[nH]c1=O` (centres undefined) registered a TGI above 100 µM.

A further assay concerns SW-620 colon. The assay is described as follows: DTP human tumour cell line panel, 48 h.
The molecule `CC1(O)CC(C(F)(F)F)(C(F)(F)F)OC1=O` (centres undefined) had a TGI above 10 µM.

`CC1=C2C(=O)NN=C2CCN1c1ccc(Br)cc1` had a TGI above 100 µM.

`O=C(NNC(=S)Nc1ccc(Cl)cc1)c1cc(-c2ccccc2)nc2ccccc12`: the TGI amounted to 18.4 µM.

`COC(=O)C(/C(=N/NC(N)=O)C(=O)Nc1ccc(C)cc1)c1nc2ccc([N+](=O)[O-])cc2[nH]c1=O` (centres undefined) returned a TGI above 100 µM.

The test system of a further assay is T-47D breast. The experiment in a line: DTP human tumour cell line panel, 48 h.
Consider `CC1(O)CC(C(F)(F)F)(C(F)(F)F)OC1=O` (centres undefined), for which the TGI was above 10 µM.

`CC1=C2C(=O)NN=C2CCN1c1ccc(Br)cc1` came in with a TGI above 100 µM.

With `O=C(NNC(=S)Nc1ccc(Cl)cc1)c1cc(-c2ccccc2)nc2ccccc12`, the TGI amounted to 11.6 µM.

`COC(=O)C(/C(=N/NC(N)=O)C(=O)Nc1ccc(C)cc1)c1nc2ccc([N+](=O)[O-])cc2[nH]c1=O` (centres undefined): the TGI is above 100 µM.

A further assay deals with TK-10 renal. The assay is described as follows: DTP human tumour cell line panel, 48 h.
For the molecule `CC1(O)CC(C(F)(F)F)(C(F)(F)F)OC1=O` (centres undefined), the TGI was above 10 µM.

Molecule `CC1=C2C(=O)NN=C2CCN1c1ccc(Br)cc1` displayed a TGI above 100 µM.

Turning to `O=C(NNC(=S)Nc1ccc(Cl)cc1)c1cc(-c2ccccc2)nc2ccccc12`, the TGI came to 21.7 µM.

In turn, `COC(=O)C(/C(=N/NC(N)=O)C(=O)Nc1ccc(C)cc1)c1nc2ccc([N+](=O)[O-])cc2[nH]c1=O` (centres undefined) gave a TGI above 100 µM.

The next assay relates to U251 CNS. The assay is described as follows: DTP human tumour cell line panel, 48 h.
For the molecule `CC1(O)CC(C(F)(F)F)(C(F)(F)F)OC1=O` (centres undefined), the total growth inhibition concentration (TGI) was above 10 µM.

Molecule `CC1=C2C(=O)NN=C2CCN1c1ccc(Br)cc1` had a TGI above 100 µM.

Take `O=C(NNC(=S)Nc1ccc(Cl)cc1)c1cc(-c2ccccc2)nc2ccccc12`: the TGI was 16.1 µM. This lies in the double-digit micromolar range.

In turn, `COC(=O)C(/C(=N/NC(N)=O)C(=O)Nc1ccc(C)cc1)c1nc2ccc([N+](=O)[O-])cc2[nH]c1=O` (centres undefined) showed a TGI above 100 µM.

The next assay has as its system UACC-257 melanoma. The assay is described as follows: DTP human tumour cell line panel, 48 h.
In turn, `CC1(O)CC(C(F)(F)F)(C(F)(F)F)OC1=O` (centres undefined) came in with a TGI above 10 µM.

`CC1=C2C(=O)NN=C2CCN1c1ccc(Br)cc1` showed a TGI above 100 µM.

Molecule `O=C(NNC(=S)Nc1ccc(Cl)cc1)c1cc(-c2ccccc2)nc2ccccc12` came in with a TGI of 19.5 µM.

A further assay relates to UACC-62 melanoma. The experiment in a line: DTP human tumour cell line panel, 48 h.
`CC1(O)CC(C(F)(F)F)(C(F)(F)F)OC1=O` (centres undefined) registered a TGI above 10 µM.

In the case of `CC1=C2C(=O)NN=C2CCN1c1ccc(Br)cc1`, the TGI is above 100 µM.

`O=C(NNC(=S)Nc1ccc(Cl)cc1)c1cc(-c2ccccc2)nc2ccccc12` came in with a TGI of 12.6 µM.

Regarding `COC(=O)C(/C(=N/NC(N)=O)C(=O)Nc1ccc(C)cc1)c1nc2ccc([N+](=O)[O-])cc2[nH]c1=O` (centres undefined), the TGI was above 100 µM.

In a further assay the test system is UO-31 renal. The experiment in a line: DTP human tumour cell line panel, 48 h.
In the case of `CC1(O)CC(C(F)(F)F)(C(F)(F)F)OC1=O` (centres undefined), the TGI is above 10 µM.

In the case of `CC1=C2C(=O)NN=C2CCN1c1ccc(Br)cc1`, the TGI was above 100 µM.

As to `O=C(NNC(=S)Nc1ccc(Cl)cc1)c1cc(-c2ccccc2)nc2ccccc12`, the TGI came out at 18.1 µM.

What is called TGI is the concentration giving total growth inhibition.
